The text below walks through data of ChEMBL document CHEMBL5352435, “Recent two-year advances in anti-dengue small-molecule inhibitors” (Eur J Med Chem, 2022).

*1 amine or outer side, *2 acyl side, *3 side chain or, on linkers, in order; H or OH if unused. Where a SMILES comes first, the peptide text is derived from it. Bridges are numbered along the chain shown (N, C = ends). [ ]: non-standard residue; d: D form. The star is where a group is joined. hTyr(3S-OH,4S-OH,3'-OSO3H) = N[C@H](C(=O)O)[C@H](O)[C@@H](O)c1ccc(O)c(OS(=O)(=O)O)c1; Orn(4R-OH,5R-OH) = O=C([C@H](C[C@@H](O)[C@@H](O)N[*:3])N[*:1])[*:2]; Pro(3S-OH,4S-Me) = C[C@H]1CN[C@H](C(=O)O)[C@H]1O; X1 = CCCCCOc1ccc(-c2cc(-c3ccc(C(=O)*)cc3)no2)cc1; Gln(3R-OH) = NC(=O)C[C@@H](O)[C@H](N)C(=O)O; Hyp = O=C(O)[C@@H]1C[C@@H](O)CN1

One may read the EC50 as the concentration needed to bring the measured effect to its halfway point. In general, IC50 refers to the point on the concentration scale where inhibition reaches its midpoint. The term CC50 denotes the concentration that lowers cell viability or growth by half.

Series [1] deals with dengue virus type 2. As to the kind of experiment: Antiviral activity against DENV2 New Guinea C infected in golden hamster BHK-21 cells assessed as inhibition of plaque formation and measured after 22 hrs by crystal violet based plaque assay. In kind it is functional, organism-based. As to conditions: BHK-21, 22 h.
The target in series [2] is T1, Genome polyprotein (dengue virus type 2, UniProt P29990). As to the kind of experiment: Inhibition of DENV2 NS2B/NS3 protease using Boc-Gly-Arg-Arg-MCA as substrate preincubated for 10 mins followed by substrate addition and measured after 60 mins by fluorescence microplate reader assay.
T1 sequence (P29990 1346-1475 limits assumed): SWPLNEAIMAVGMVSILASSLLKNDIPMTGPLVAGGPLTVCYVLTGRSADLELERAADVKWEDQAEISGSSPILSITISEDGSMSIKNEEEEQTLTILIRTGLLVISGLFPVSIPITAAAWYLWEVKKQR
T1 sequence (P29990 1476-2093 limits assumed): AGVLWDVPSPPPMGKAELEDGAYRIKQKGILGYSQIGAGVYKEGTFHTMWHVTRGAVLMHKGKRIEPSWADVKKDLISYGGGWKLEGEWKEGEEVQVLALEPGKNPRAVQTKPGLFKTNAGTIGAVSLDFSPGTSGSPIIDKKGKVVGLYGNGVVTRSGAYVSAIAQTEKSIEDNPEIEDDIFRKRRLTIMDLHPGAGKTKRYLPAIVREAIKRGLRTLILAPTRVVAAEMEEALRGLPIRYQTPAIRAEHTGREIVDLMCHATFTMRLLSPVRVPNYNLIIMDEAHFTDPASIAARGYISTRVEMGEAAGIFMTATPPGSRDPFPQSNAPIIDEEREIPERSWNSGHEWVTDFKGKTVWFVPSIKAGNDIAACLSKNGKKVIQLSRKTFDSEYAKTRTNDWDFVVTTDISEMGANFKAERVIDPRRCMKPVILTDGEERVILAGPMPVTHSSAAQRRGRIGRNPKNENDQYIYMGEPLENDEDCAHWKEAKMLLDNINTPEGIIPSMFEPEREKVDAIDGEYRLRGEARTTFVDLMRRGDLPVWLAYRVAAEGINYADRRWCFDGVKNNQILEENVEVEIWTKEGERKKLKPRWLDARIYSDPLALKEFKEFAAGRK
In series [3] the test system is dengue virus type 2. Kind of series: Antiviral activity against DENV2 infected in African green monkey Vero cells assessed as inhibition of viral titer preincubated for 16 hrs followed by viral infection and measured after 36 hrs by focus-forming assay. It counts as functional, organism-based.
The nature of series [4]: Cytotoxicity against human Huh-7 cells assessed as reduction in cell viability incubated for 48 hrs by AlamarBlue assay. It counts as toxicity, cell-based. On the technique in general: Resazurin is reduced to fluorescent resorufin, in cell work by metabolically active cells.
Series [5] relates to dengue virus type 2. Kind of series: Antiviral activity against DENV2 New Guinea C expressing […] reporter plasmid infected in human Huh-7 cells assessed as inhibition of viral replication incubated for 48 hrs by nanoluciferase assay. In kind it is functional, organism-based. Conditions: Huh-7, 48 h.
A further series addresses Nonstructural protein 3 (Zika virus, UniProt A0A024AXB9). As to the kind of experiment: Inhibition of recombinant ZIKV NS2B-NS3 protease using Bz-Nle-K-K-R-AMC as substrate incubated for 1 hr by fluorescence-based microplate reader assay.
Series [6] concerns dengue virus type 4. As to the kind of experiment: Antiviral activity against DENV4 infected in Huh-7 cells assessed as inhibition of virus induced cytopathic effect incubated for 72 hrs by Hoechst 33342 staining based immunofluorescence assay. In kind it is functional, organism-based. As to conditions: Huh-7, 72 h. Background: Protection from cytopathic effect is a common read-out in antiviral testing.

Series [7] relates to dengue virus type 2. As to the kind of experiment: Antiviral activity against DENV2 assessed as inhibition of viral replication. In kind it is functional, organism-based.
The test system of series [8] is dengue virus type 2. As to the kind of experiment: Antiviral activity against DENV2 New Guinea C infected in monkey LLC-MK2 cells assessed as inhibition of plaque formation incubated for 72 hrs by plaque titration assay. In kind it is functional, organism-based. As to conditions: LLC-MK2, 72 h.
Series [9] has as its system dengue virus type 3. As to the kind of experiment: Antiviral activity against DENV3 assessed as inhibition of viral replication. In kind it is functional, organism-based.
In series [10] the test system is dengue virus type 2. Kind of series: Antiviral activity against DENV2 infected in mouse assessed as survival rate at 30 mg/kg,po. In kind it is functional.
Series [11] has as its system dengue virus type 4. Kind of series: Antiviral activity against DENV4 assessed as inhibition of viral replication. In kind it is functional, organism-based.
The test system of another series is dengue virus type 1. Kind of series: Antiviral activity against DENV1 assessed as inhibition of viral replication. In kind it is functional, organism-based.
Series [12] concerns dengue virus type 2. As to the kind of experiment: Antiviral activity against DENV2 New Guinea C infected in Huh-7 cells assessed as inhibition of virus induced cytopathic effect incubated for 3 to 7 days by Neutral red assay. In kind it is functional, organism-based.
The subject of series [13] is dengue virus type 3. Kind of series: Antiviral activity against DENV3 H87 assessed as reduction in viral RNA copy number preincubated for 1 hrs followed by infection in Vero cells and measured after 4 days by qRT-PCR analysis. In kind it is functional, organism-based. (Real-time PCR tracks product formation cycle by cycle.)
Series [14] concerns dengue virus type 2. Kind of series: Antiviral activity against DENV2 New Guinea C infected in golden hamster BHK-21 cells assessed as inhibition of plaque formation incubated for 4 days by crystal violet staining based microscopy. It counts as functional, organism-based. Conditions: BHK-21, 96 h.
Series [15] has as its system dengue virus type 2. As to the kind of experiment: Antiviral activity against DENV2 16681 infected in human Huh-7 cells assessed as inhibition of viral titer incubated for 24 hrs by focus-forming assay. In kind it is functional, organism-based. Conditions: Dengue virus, 16681, Huh-7, 24 h.
Series [16] in a line: Cytotoxicity against human Huh-7 cells assessed as reduction in cell viability incubated for 24 hrs by PrestoBlue assay. It counts as toxicity, cell-based.
For series [17], the system named is dengue virus type 2. Kind of series: Antiviral activity against DENV2 Thailand/16681/1984 infected in golden hamster BHK-21 cells assessed as inhibition of virus induced cytopathic effect incubated for 4 to 5 days by microscopy. In kind it is functional, organism-based.
The target of series [18] is T1, Genome polyprotein. As to the kind of experiment: Inhibition of DENV2 NS2B (48 to 100 residues)/NS3 (14 to 185 residues) protease expressed in Escherichia coli BL21 (DE3) using Bz-Nle-Lys-Arg-Arg-AMC as substrate preincubated for 30 mins followed by substrate addition by fluorescence assay.

Sequence of Nonstructural protein 3 (A0A024AXB9 whole entry): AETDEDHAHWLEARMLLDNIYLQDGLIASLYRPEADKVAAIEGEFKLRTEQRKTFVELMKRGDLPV

On to `COc1cc(/C=C(\C#N)C(=O)c2ccc(O)c(O)c2)cc(I)c1O`, for which, in the series on dengue virus type 2 [1], the EC50 was determined as 3 µM. On Genome polyprotein [2], `O=C(CCCCCCCCc1ccc(O)cc1)c1c(O)cc(O)cc1O` returned an IC50 of 7.55 µM. Turning to `Cc1ccc(O)c(NC(=O)CCc2ccccc2)c1`, in the series with dengue virus type 2 [3], the 50% inhibitory concentration (IC50) was 1 µM.

With `Fc1cc2cn[nH]c2cc1Nc1ccnc2ccc(Br)cc12`, the CC50 at 48 h in [4] is above 10 µM. Moreover, the EC50 in the series with dengue virus type 2 [5] is 2.3 µM. Turning to `O=[N+]([O-])c1ccc(Nc2ccc3[nH]ncc3c2)nc1N1CCNCC1`, the IC50 at Nonstructural protein 3 turned out to be 1.5 µM; in the series on dengue virus type 4 [6] it was 7.1 µM. As to `CC(C)(C)[Si](C)(C)Oc1ccc([C@H]2N(Nc3ccc([N+](=O)[O-])cc3)C(=O)[C@@H]3Cc4ccccc4N32)cc1`, the 50% effective concentration (EC50) in the series with dengue virus type 2 [7] worked out at 4.79 µM. Consider `C#COc1ccc(-c2cc(=O)c3c(O)cc(O)cc3o2)cc1`, for which the concentration giving a half-maximal response (EC50) in the series on dengue virus type 2 [8] stood at 7.81 µM.

As to `COc1cc(NC(C(=O)N2CCc3ccc(OC(F)(F)F)cc32)c2ccc(Cl)cc2)cc(OCCCC(=O)O)c1` (stereo not given), the 50% effective concentration (EC50) in the series with dengue virus type 3 [9] was at most 0.001 µM; in the series on dengue virus type 4 [11], at most 0.006 µM; in the series with dengue virus type 2 [7], at most 0.004 µM; in the series with dengue virus type 1 it was at most 0.001 µM. The Activity in the series on dengue virus type 2 [10] worked out at 90%. As for `CC1(C)Cc2sc(NC(=O)Cc3ccc(S(N)(=O)=O)cc3)c(C#N)c2CN1CC1CCCCC1`, the 50% effective concentration (EC50) in the series on dengue virus type 2 [12] is 0.023 µM.

As for `O=C1NCc2ccc(Nc3ccnc4ccc(Br)cc34)cc21`, the cytotoxic concentration (CC50) at 48 h in [4] was above 10 µM. For the same compound, the EC50 with dengue virus type 2 [5] came to 3.6 µM. As to `O=c1cc(-c2ccccc2)oc2cc(O)c(O)c(O)c12` [BAICALEIN], in the series on dengue virus type 3 [13], the half-inhibitory concentration (IC50) stood at 17.2 µM. In the case of `Cc1cc2c(F)c(Oc3ncnn4cc(OC[C@@H](C)O)c(C)c34)ccc2[nH]1` [BRIVANIB], the concentration for half-maximal inhibition (IC50) in the series with dengue virus type 2 [14] was found to be 2.5 µM. For the compound `COc1ccc2[nH]cc(CCNC(C)=O)c2c1` [MELATONIN], the concentration for half-maximal inhibition (IC50) in the series with dengue virus type 2 [15] was determined as 135 µM. Besides, in series [16], the CC50 at 24 h is 3170 µM. As for `CCCCCOc1ccc(-c2cc(-c3ccc(C(=O)N[C@H]4C[C@@H](O)[C@@H](O)NC(=O)[C@@H]5[C@@H](O)[C@@H](C)CN5C(=O)[C@H]([C@H](O)CC(N)=O)NC(=O)[C@H]([C@H](O)[C@@H](O)c5ccc(O)c(OS(=O)(=O)O)c5)NC(=O)[C@@H]5C[C@@H](O)CN5C(=O)[C@H]([C@@H](C)O)NC4=O)cc3)no2)cc1` [MICAFUNGIN] (X1-[Orn(4R-OH,5R-OH)]T[Hyp][hTyr(3S-OH,4S-OH,3'-OSO3H)][Gln(3R-OH)][Pro(3S-OH,4S-Me)]; lactam 1-C), the IC50 with dengue virus type 2 [17] was found to be 10.2 µM. In the case of `O=c1c(O)c(-c2cc(O)c(O)c(O)c2)oc2cc(O)cc(O)c12` [MYRICETIN], the half-maximal inhibitory concentration (IC50) against Genome polyprotein [18] was found to be 8.46 µM. As for `COc1cc([C@H]2Oc3cc([C@H]4Oc5cc(O)cc(O)c5C(=O)[C@@H]4O)ccc3O[C@@H]2CO)ccc1O` [SILYBIN A], the IC50 with dengue virus type 3 [13] turned out to be 18.5 µM. Regarding `Cc1ccc(C(=O)Nc2ccc(S(=O)(=O)O)c3cc(S(=O)(=O)O)cc(S(=O)(=O)O)c23)cc1NC(=O)c1cccc(NC(=O)Nc2cccc(C(=O)Nc3cc(C(=O)Nc4ccc(S(=O)(=O)O)c5cc(S(=O)(=O)O)cc(S(=O)(=O)O)c45)ccc3C)c2)c1` [SURAMIN HEXASODIUM], the EC50 with dengue virus type 2 [1] was found to be 0.35 µM.
